Measurements published in patent US8222187B2, “Method for improving the phytoremediation of polluted sites by providing plants with exogenous carbohydrates” (Universite de Rennes 1, priority 2003, dated 2012).

Assays:
[1] = tested on: Arabidopsis thaliana; assay: Photosynthetic pigment levels (chlorophylls and carotenoids) after 15 days of culture; type: in vivo
Description: (§1) Arabidopsis thaliana seeds (Wassilewskija ecotype) were sterilised at the surface according to the standard protocol and then rinsed with absolute ethanol and dried for one night.
(§2) These seeds were cultivated in Petri dishes on a culture medium of Murashige and Skoog (adjusted to a pH of 5.7) containing agar (0.8%). The Petri dishes were stored for 48 h at 4° C. then transferred to 22° C. under a photoperiod of 16 hours per day at 4500 lux. The sucrose and glucose were added to the culture medium, while no sugar was added for the controls.
(§3) A growth parameter (length of the primary roots) and the pigment levels (chlorophylls and carotenoids) were measured after 15 days of culture. The atrazine levels in the plants were also measured after one month of culture.
The photosynthetic pigments (chlorophylls and carotenoids) were extracted by grinding the aerial portions of the plants in 80% acetone and by measuring the absorbance of the extracts corresponding to 663 nm, 646 nm and 470 nm. The levels of these pigments were expressed in μg/mL and determined according to the method of Lichtenthaler et al. (1983 Biochem. Soc. Trans. 11, 591-592).

[2] = tested on: Arabidopsis thaliana; assay: Length of the primary roots of Arabidopsis thaliana after 15 days of culture on agar medium; type: in vivo
Description: as §1, §2, §3

[3] = tested on: D1 protein of photosystem II; assay: D1 protein levels by Dot Blot and Western Blot; type: in vivo, Arabidopsis thaliana
Description: In another experiment series, Arabidopsis thaliana plants were cultivated in the culture medium described above in the absence of sucrose and in the presence of 10 mM and 80 mM of sucrose, and in the absence of atrazine and in the presence of 0.25 μM and 1 μM of atrazine. To measure the levels of D1 protein (31-kD monomer and 21.5-kD by-products), the membrane proteins of the plants were isolated according to the method of Pilgrim et al. (1998 Plant. J. 13 2-77-186). The levels of the total concentration of the target protein, D1 protein of photosystem II, were measured by Dot Blot analysis. Then, the different forms were analysed by gel electrophoresis separation under denaturing and Western Blot conditions.

[4] = tested on: superoxide ion; assay: Superoxide ion production of the plants; type: in vivo, Arabidopsis thaliana; conditions: 10 mM sucrose
Description: In addition, the superoxide ion production of the plants was tested according to the method of Fryer et al. (2002 Imaging of photo-oxidative stress responses in leaves—J. Exp. Bot. 53: 1249-1254).

[5] = tested on: Arabidopsis thaliana; assay: Arabidopsis culture on humus contaminated with atrazine; type: in vivo; conditions: humus with 10 μM atrazine; sucrose applied to the surface as a 3% solution
Description: Atrazine concentrations were also measured in the plants and the culture medium using conventional methods of extraction with solvents and high-performance liquid chromatography analysis with UV detection. The atrazine was extracted in a methanol and water mixture (4:1, v/v). After centrifugation, the supernatants were filtered on filters of 0.45 μm and the organic solvents were evaporated at 40° C. SPE cartridges were activated by washing with 5 mL or methanol then 5 mL of water. Each sample was applied to a column and the columns were then washed. The atrazine was eluted with 2 mL of dichloromethane. The organic solvents were then evaporated and the dry residues were dissolved in 500 μL of a methanol and water mixture (1:1). The samples were then analysed by HPLC with UV detection. In additional experiments, Arabidopsis thaliana was also cultivated on a humus contaminated at a concentration of 10 μM of atrazine in the absence of sucrose and in the presence of sucrose applied to the surface in the form of a 3% solution. The cultures obtained are shown in FIG. 11, in which the left-hand container corresponds to the culture in the presence of sucrose and the right-hand container corresponds to the culture in the absence of sucrose.

[6] = target: T1, photosystem II (Arabidopsis thaliana, UniProt P83755); assay: Activity of photosystem II monitored by chlorophyll fluorescence; type: in vivo; conditions: increasing sucrose (10 mM, 80 mM), atrazine 0.25 μM and 1 μM (lethal or sublethal doses without sucrose)
T1 construct: from tissue; host or cells: whole Arabidopsis thaliana plants grown on culture medium
Description: In another experiment series, Arabidopsis thaliana plants were cultivated in the culture medium described above in the absence of sucrose and in the presence of 10 mM and 80 mM of sucrose, and in the absence of atrazine and in the presence of 0.25 μM and 1 μM of atrazine. […] The activity of photosystem II is monitored by measuring the fluorescence of the chlorophylls.

[7] = absence of sugars in the culture medium

SMILES	concentration at which chlorophylls and carotenoids disappear completely [1, 7]	effect on levels of chlorophylls and carotenoids in the leaves ([1]; in the presence of 80 mM sucrose or 80 mM glucose)	effect on the length of the primary roots ([2]; 1 to 10 μM atrazine, in the presence of 80 mM sucrose or 80 mM glucose)	IC50 ([2]; Arabidopsis thaliana, absence of sugars in the culture medium, hyperbolic regression curve (R^2=0.93), read-out: I50 for the atrazine inhibition of primary root length)	concentration at which inhibition of root development is complete, with discolouring and death of the plants [2, 7]	effect on root growth ([2]; atrazine concentrations higher than 10 μM, in the presence of 80 mM sucrose or 80 mM glucose)	effect on D1 protein (Dot Blot, all D1 proteins) ([3]; 1 μM atrazine, plants not cultivated in the presence of sucrose)	effect on superoxide ion production ([4]; increasing atrazine levels)	seedlings on contaminated humus with sucrose compared with no sucrose [5]	effect on activity of photosystem II [6]	increase in root growth at higher atrazine concentrations, sucrose compared with glucose ([2]; 80 mM sugar)	effect on D1 protein and by-products (Western Blot) ([3]; 10 mM sucrose, 1 μM atrazine)	effect on D1 protein and by-products (Western Blot) ([3]; 80 mM sucrose, 1 μM atrazine)	effect on monomer of the D1 protein (Western Blot) ([3]; 80 mM sucrose, atrazine concentrations at which the monomer disappears without sucrose)	effect on D1 protein (Western Blot) ([3]; high sucrose concentrations, absence of atrazine)	effect on D1 protein and by-products (Western Blot) ([3]; sucrose in the culture medium, 0.25 μM atrazine)	effect of sucrose on production of active oxygen species such as the superoxide ion ([4]; in the presence of atrazine)
CCNc1nc(Cl)nc(NC(C)C)n1 [atrazine, 2-chloro-4-ethylamino-6-isopropylamine-1,3,5-triazine]	500 nM	the production of these pigments is not suppressed	inhibiting but non-lethal effect	120 nM	500 nM	paradoxically enable the root growth to improve	causes the disappearance of the D1 protein	appears to increase in the presence of atrazine	–	–	–	–	–	–	–	–	–
OC[C@H]1O[C@@](CO)(O[C@H]2O[C@H](CO)[C@@H](O)[C@H](O)[C@H]2O)[C@@H](O)[C@@H]1O [sucrose]	–	–	–	–	–	–	–	–	more numerous and larger	contribute to maintaining the activity of photosystem II	greater in the presence of sucrose than in the presence of glucose	The same effect was observed	causes a decrease in the D1 protein	maintain a sufficient amount of monomer of the D1 protein	decrease in D1 protein production	greater accumulation of the D1 protein and its by-products	does not prevent the production
